Test results taken from patent US8475940B2, “Anthracene derivative and light-emitting device” (Toppan Printing Co., Ltd., priority 2009, dated 2013).
“And” between values parts separate entries of the source, which are not always exact repeats. Equal values may be shown once.

Assays:
[1] = background section, DSC; cited from earlier work
[2] = Energy level: ionization potential of spin coat film by surface analyzer AC-1, electron affinity by subtracting absorption-edge energy; assay type: physicochemical; conditions: for electron affinity: ionization potential minus absorption-edge energy; for ionization potential: spin coat film on ITO glass, surface analyzer AC-1; for Eg: energy difference between ionization potential and electron affinity
Experimental: (§1) A solution prepared by dissolving 1.3 mg of the compound 1 in 1 ml of toluene was applied to an ITO transparent electroconductive glass by spin coating to measure the ionization potential by a surface analyzer AC-1 manufactured by Riken Keiki Co., Ltd., to find that the ionization potential was 5.9 eV.
A solution prepared by dissolving 10 mg of the isomer component 1 of the compound 2 in 1 ml of toluene was applied to an ITO transparent electroconductive glass by spin coating to measure the ionization potential by a surface analyzer AC-1 manufactured by Riken Keiki Co., Ltd., to find that the ionization potential was 5.9 eV.
as §1, with “10” for “1.3”, “eV. The electron affinity obtained by subtracting the absorption-edge energy from the ionization potential was 3.0 eV.” for “eV.”
as §1, with “dissolving 10” for “dissolving 1.3”, “compound 31” for “compound 1”, “was 6.2” for “was 5.9”, “eV. The electron affinity obtained by subtracting absorption-edge energy from the ionization potential was 3.0 eV.” for “eV.”
as §1, with “dissolving 10” for “dissolving 1.3”, “compound 32” for “compound 1”, “was 6.2” for “was 5.9”, “eV. The electron affinity obtained by subtracting absorption-edge energy from the ionization potential was 3.0 eV.” for “eV.”

[3] = Thermal analysis by DSC (glass transition temperature); assay type: physicochemical; conditions: for thermal stability: second heatup after rapid cooling, no exothermic or endothermic peak except Tg
Experimental: The glass transition temperature (Tg), crystallization temperature (Tc), and melting point (Tm) of the compound 1 were measured by EXSTAR6000 Series DSC6200 manufactured by Seiko Instruments Inc., at a temperature rise rate of 20° C./min. […] Tm was 493° C. to 513° C. (peak 504° C.).
The glass transition temperature (Tg), crystallization temperature (Tc), and melting point (Tm) of the isomer component 1 of the compound 2 were measured by an EXSTAR6000Series DSC6200 manufactured by Seiko Instruments Inc., at a temperature rise rate of 20° C./min.
The Tg, Tc, and Tm of the compound 33 measured by DSC were 240° C., 323° C., and 403° C. respectively.

[4] = Solubility in toluene / organic solvents at ambient temperature; assay type: physicochemical; conditions: for solubility (concentration dissolved in toluene): ambient temperature; for solubility in organic solvents: aromatic solvents such as xylene, anisole, tetralin
Experimental: The compound 1 was dissolved with a concentration of 1.3 mg in 1 ml of toluene at ambient temperature and used as a light-emitting dopant for a blue light-emitting layer ink, which could be applied to form a film.
The isomer component 1 of compound 2 was dissolved in a concentration of 34 mg in 1 ml of toluene at ambient temperature and used for ink that formed each layer of an organic EL as a carrier transport layer, each color light-emitting host and light-emitting dopant, thereby enabling the formation of a coating film.
The compound 3 was dissolved in a concentration of 150 mg in 1 ml of toluene at ambient temperature and used for ink that formed each layer of an organic EL as a carrier transport layer, each color light-emitting host, or blue light-emitting dopant, thereby enabling the formation of a coating film.
Further, the compound 31 can be dissolved in various mixture solvents to be matched with the viscosities of various printing systems.
The compound 32 was soluble in a concentration of 6 mg in 1 ml of toluene at ambient temperature. When the compound 32 was gradually added to dissolve while heating on a hot plate, 34 mg of the compound 32 was dissolved when the temperature was returned to ambient temperature. The compound 32 can be used as an electron transportable carrier transport material and may be dissolved in an organic solvent such as toluene, xylene, anisole, and tetralin to add the obtained solution to ink for forming each layer of an organic EL, thereby forming a coating film.

[5] = Optical deterioration of fluorescent intensity of film under 340 nm irradiation; assay type: physicochemical; conditions: irradiated with 340 nm light for 1,000 sec, slit 1.5 nm
Experimental: A film of the ink was formed on an ITO transparent electroconductive glass by spin coating and the fluorescent spectrum intensity was measured by a fluorophotometer (trade name: RF-5300PC, manufactured by Shimadzu Corporation) at an excitation spectrum of 340 nm.
Using a fluorophotometer (trade name: RF-5300PC, manufactured by Shimadzu Corporation) wherein the width of the slit for excitation light was changed to 1.5 nm, this light emitting film was successively irradiated with light having a wavelength of 340 nm for 1,000 sec, with the result that a single film of the isomer component 1 of the compound 2 was decreased in fluorescent intensity to 57% of the initial intensity and the single film of BTrSBF was decreased to 64% of the initial intensity whereas the film obtained by doping BTrSBF with 5 wt % of the compound 2 kept 74% of the initial intensity, showing that this film had the effect of suppressing the optical deterioration of fluorescent intensity.

[6] = Fluorescent spectrum of spin coat film (fluorophotometer RF-5300PC); assay type: physicochemical; conditions: for fluorescent peak wavelength: single-compound spin coat film on ITO transparent electroconductive glass, excitation 330-340 nm
Experimental: The fluorescent spectrum of a spin coat film of the compound 31 on an ITO transparent electroconductive glass was measured. The results correspond to a graph (0 wt %) of FIG. 8. The measurement was made by a fluorophotometer (trade name: RF-5300PC, manufactured by Shimadzu Corporation). The compound 31 emitted blue light having a fluorescent peak wavelength of 422 nm.
First, a fluorescent spectrum obtained when a film formed in a thickness of 41 nm by applying a solution of the compound 32 to the surface of an ITO transparent electroconductive glass by spin coating was excited by 340 nm light was obtained (solid line in FIG. 10). The measurement was made by a fluorophotometer (trade name: RF-5300PC, manufactured by Shimadzu Corporation). Blue light emission having a fluorescent peak wavelength of 424 nm was obtained.
A fluorescent spectrum obtained when a film was formed in the same manner as above by doping the compound 32 with 5 wt % of the compound 2 was measured in the same manner as above. The results are shown by the dotted line in FIG. 10. The fluorescent peak wavelength was 453 nm and pure blue light emission was obtained which was more intensified than the case where the compound 32 was not doped with the compound 2.
Xylene solutions containing only the compound 31, only the compound 33, and a mixture of the compound 31:compound 33:compound 3 (10:2:1 ratio by weight) such that each solid content was 2 wt % were respectively applied to a quarts plate by spin coating (rotated at 500 rpm for 5 sec and then at 1200 rpm for 60 sec) to form films having almost the same thickness, thereby measuring a fluorescent spectrum.

SMILES | electron affinity [2] | ionization potential [2] | thermal stability [3] | solubility (concentration dissolved in toluene) ([4]; toluene) | fluorescent peak wavelength [6] | also measured
CC(C)(C)c1ccc2c(-c3ccccc3-c3ccccc3)c3ccccc3c(-c3ccccc3-c3ccccc3)c2c1 [TBBPA, 9,10-di(biphenyl-2-yl)-2-t-butylanthracene] |  |  |  |  |  | glass transition temperature (Tg) of prior-art material [1]: about 74 °C
CC(C)(C)c1ccc(-c2nc(-c3ccc(-c4ccccc4-c4c5ccccc5c(-c5ccccc5-c5ccc(-c6nc(-c7ccc(C(C)(C)C)cc7)nc(-c7ccc(C(C)(C)C)cc7)n6)cc5)c5ccccc45)cc3)nc(-c3ccc(C(C)(C)C)cc3)n2)cc1 [compound 1, 9,10-bis{4-[2,4-bis(4-tert-butylphenyl)-1,3,5-triazine-6-yl]biphenyl-2′-yl}anthracene] | 2.9 eV and 3.0 eV | 5.9 eV |  | 1.3 mg in 1 ml | 448 nm | 
CC(C)(C)c1ccc(-c2nc(-c3ccc(-c4ccccc4-c4c5ccccc5c(-c5ccccc5-c5ccc(-c6nc(-c7ccc(C(C)(C)C)cc7)nc(-c7ccc(C(C)(C)C)cc7)n6)cc5)c5cc(C(C)(C)C)ccc45)cc3)nc(-c3ccc(C(C)(C)C)cc3)n2)cc1 [compound 3, 2-tert-butyl-9,10-bis{4-[2,4-bis(4-tert-butylphenyl)-1,3,5-triazine-6-yl]biphenyl-2′-yl}anthracene] |  |  | thermally very stable | 150 mg in 1 ml | 453 nm | 
CC(C)(C)c1ccc2c(-c3ccc4ccccc4c3)c3ccccc3c(-c3ccc4ccccc4c3)c2c1 [TBDNA, 9,10-di(2-naphthyl)-2-tertiarybutylanthracene] |  |  |  |  |  | glass transition temperature (Tg) of prior-art material [1]: about 128 °C
Cc1ccc2c(-c3ccccc3-c3ccc(-c4nc(-c5ccc(C(C)(C)C)cc5)nc(-c5ccc(C(C)(C)C)cc5)n4)cc3)c3ccccc3c(-c3ccccc3-c3ccc(-c4nc(-c5ccc(C(C)(C)C)cc5)nc(-c5ccc(C(C)(C)C)cc5)n4)cc3)c2c1 [compound 2, 2-methyl-9,10-bis{4-[2,4-bis(4-tert-butylphenyl)-1,3,5-triazine-6-yl]biphenyl-2′-yl}anthracene] |  |  |  |  | 454 nm | Eg [2]: about 2.9 eV

Further lines, with some results ahead:

electron affinity [2] | ionization potential [2] | thermal stability [3] | solubility (concentration dissolved in toluene) ([4]; toluene) | fluorescent peak wavelength [6] | SMILES | also measured
2.9 eV | 5.9 eV | thermally very stable | 34 mg in 1 ml |  | Cc1ccc2c(-c3ccccc3-c3ccc(-c4nc(-c5ccc(C(C)(C)C)cc5)nc(-c5ccc(C(C)(C)C)cc5)n4)cc3)c3ccccc3c(-c3ccccc3-c3ccc(-c4nc(-c5ccc(C(C)(C)C)cc5)nc(-c5ccc(C(C)(C)C)cc5)n4)cc3)c2c1 (single isomer, unassigned) [isomer component 1 of the compound 2, 2-methyl-9,10-bis{4-[2,4-bis(4-tert-butylphenyl)-1,3,5-triazine-6-yl]biphenyl-2′-yl}-anthracene] | fluorescent intensity remaining [5]: 57 % of the initial intensity
3.0 eV | 6.2 eV | thermally stable glass-like material | 0.4 g in 1 ml | 422 nm | CC(C)(C)c1ccc(-c2nc(-c3ccc(-c4ccc5c(c4)C4(c6ccccc6-5)c5ccccc5-c5ccc(-c6ccc(-c7nc(-c8ccc(C(C)(C)C)cc8)nc(-c8ccc(C(C)(C)C)cc8)n7)cc6)cc54)cc3)nc(-c3ccc(C(C)(C)C)cc3)n2)cc1 [compound 31, 2,2′-bis(4-(2,4-bis(4-tert-butylphenyl)-1,3,5-triazine-6-yl)phenyl)-9,9′-spirobifluorene] | Eg [2]: 3.2 eV; solubility in organic solvents ([4]; toluene): easily soluble; fluorescent intensity remaining [5]: 64 % of the initial intensity
3.0 eV | 6.2 eV |  | 6 mg in 1 ml | 424 nm | Cc1ccc(-c2nc(-c3ccc(C)cc3)nc(-c3ccc(-c4ccc5c(c4)C4(c6ccccc6-5)c5ccccc5-c5ccc(-c6ccc(-c7nc(-c8ccc(C)cc8)nc(-c8ccc(C)cc8)n7)cc6)cc54)cc3)n2)cc1 [compound 32] | amount dissolved after heating on a hot plate and return to ambient temperature ([4]; 1 ml of toluene, gradually added while heating, returned to ambient temperature): 34 mg
2.8 eV | 6.2 eV |  |  |  | CC(C)(C)c1ccc2c(c1)c1cc(C(C)(C)C)ccc1n2-c1ccc(-c2cc(-c3ccc(-n4c5ccc(C(C)(C)C)cc5c5cc(C(C)(C)C)ccc54)cc3)cc(-c3ccc(-n4c5ccc(C(C)(C)C)cc5c5cc(C(C)(C)C)ccc54)cc3)c2)cc1 [compound 33, 1,3,5-tris(4-(3,6-di-tert-butyl-N-carbazolyl)phenyl)benzene] | fluorescent peak ([6]; spin coat film from xylene solution on quartz plate): 380 nm; glass transition temperature (Tg) ([3]; DSC, temperature rise rate 20° C./min): 240 °C; solubility in organic solvents ([4]; toluene): easily soluble; amount dissolved in general organic solvent ([4]; toluene, xylene, tetralin or mixture solvent): ≥ 10 wt %
